Measurements from ChEMBL document CHEMBL5523684, “Development of a tetrahydroindazolone-based HDAC6 inhibitor with in-vivo anti-arthritic activity” (Bioorg Med Chem, 2024).
pIC50: −log10 of the molar value. Calls of active or inactive are those of the source. No cut-off for these calls is given here.

Columns and labels:
[1] = molecular target: T1, Protein deacetylase HDAC6 (Homo sapiens) (UniProt Q9UBN7); assay: Inhibition of HDAC6 in human HH cells assessed as induction of acetylated tubulin accumulation at 0.3 uM by Western blot analysis; format: cell-based
T1 sequence (whole entry): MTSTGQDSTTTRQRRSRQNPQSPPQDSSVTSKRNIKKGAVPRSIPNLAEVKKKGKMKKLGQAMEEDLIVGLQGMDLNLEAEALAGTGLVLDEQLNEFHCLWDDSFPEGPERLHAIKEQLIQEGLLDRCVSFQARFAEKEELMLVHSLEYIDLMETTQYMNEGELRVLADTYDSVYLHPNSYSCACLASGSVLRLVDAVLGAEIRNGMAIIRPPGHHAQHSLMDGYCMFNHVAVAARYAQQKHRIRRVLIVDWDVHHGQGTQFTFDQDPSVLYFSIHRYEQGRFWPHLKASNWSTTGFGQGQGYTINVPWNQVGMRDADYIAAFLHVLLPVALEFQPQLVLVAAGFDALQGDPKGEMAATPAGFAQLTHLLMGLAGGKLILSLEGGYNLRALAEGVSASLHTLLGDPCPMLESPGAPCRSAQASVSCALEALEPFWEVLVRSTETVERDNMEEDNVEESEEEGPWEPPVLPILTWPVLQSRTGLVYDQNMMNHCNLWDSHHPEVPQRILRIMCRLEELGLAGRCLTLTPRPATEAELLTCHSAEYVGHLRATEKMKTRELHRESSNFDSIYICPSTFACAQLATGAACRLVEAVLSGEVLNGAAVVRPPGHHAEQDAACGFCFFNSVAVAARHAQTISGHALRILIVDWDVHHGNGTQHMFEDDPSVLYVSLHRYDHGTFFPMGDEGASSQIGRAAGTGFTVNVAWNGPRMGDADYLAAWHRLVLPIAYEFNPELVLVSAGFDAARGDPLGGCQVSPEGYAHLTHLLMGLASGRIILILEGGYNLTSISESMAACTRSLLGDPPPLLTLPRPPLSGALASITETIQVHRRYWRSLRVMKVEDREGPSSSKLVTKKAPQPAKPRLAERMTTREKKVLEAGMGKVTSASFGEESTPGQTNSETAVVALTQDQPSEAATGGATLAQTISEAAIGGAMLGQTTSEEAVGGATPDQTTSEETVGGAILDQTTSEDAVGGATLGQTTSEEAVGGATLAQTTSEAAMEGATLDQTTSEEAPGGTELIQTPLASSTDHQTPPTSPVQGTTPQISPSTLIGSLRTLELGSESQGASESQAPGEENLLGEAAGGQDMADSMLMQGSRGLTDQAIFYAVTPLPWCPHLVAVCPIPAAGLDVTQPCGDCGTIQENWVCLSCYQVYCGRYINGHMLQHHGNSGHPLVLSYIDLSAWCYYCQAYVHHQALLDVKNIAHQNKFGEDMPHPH

[2] = molecular target: T1, Protein deacetylase HDAC6 (Homo sapiens); assay: Inhibition of HDAC6 in human HH cells assessed as induction of acetylated H3 accumulation upto 10 uM by Western blot analysis; format: cell-based
[3] = molecular target: T1, Protein deacetylase HDAC6 (Homo sapiens); assay: Inhibition of HDAC6 in human HH cells assessed as induction of acetylated H4 accumulation upto 10 uM by Western blot analysis; format: cell-based
[4] = Half life in mouse at 10 mg/kg, iv; format: ADME, organism-based; conditions: in vivo
[5] = Half life in mouse at 50 mg/kg, po; format: ADME, organism-based; conditions: in vivo
[6] = C0 in mouse at 10 mg/kg, iv; format: ADME, organism-based; conditions: in vivo
[7] = Cmax in mouse at 50 mg/kg, po; format: ADME, organism-based; conditions: in vivo
[8] = AUClast in mouse at 10 mg/kg, iv; format: ADME, organism-based; conditions: in vivo
[9] = AUClast in mouse at 50 mg/kg, po; format: ADME, organism-based; conditions: in vivo
[10] = AUC (0 to infinity) in mouse at 10 mg/kg, iv; format: ADME, organism-based; conditions: in vivo
[11] = Bioavailability in mouse at 10 mg/kg, iv; format: ADME, organism-based; conditions: in vivo
[12] = Half life in dog at 0.5 mg/kg, iv; format: ADME, organism-based, Canis lupus familiaris; conditions: in vivo
[13] = Half life in dog at 5 mg/kg, po; format: ADME, organism-based, Canis lupus familiaris; conditions: in vivo
[14] = Tmax in dog at 5 mg/kg, po; format: ADME, organism-based, Canis lupus familiaris; conditions: in vivo
[15] = C0 in dog at 0.5 mg/kg, iv; format: ADME, organism-based, Canis lupus familiaris; conditions: in vivo
[16] = Cmax in dog at 5 mg/kg, po; format: ADME, organism-based, Canis lupus familiaris; conditions: in vivo
[17] = AUClast in dog at 0.5 mg/kg, iv; format: ADME, organism-based, Canis lupus familiaris; conditions: in vivo
[18] = AUClast in dog at 5 mg/kg, po; format: ADME, organism-based, Canis lupus familiaris; conditions: in vivo
[19] = AUC (0 to infinity) in dog at 0.5 mg/kg, iv; format: ADME, organism-based, Canis lupus familiaris; conditions: in vivo
[20] = AUC (0 to infinity) in dog at 5 mg/kg, po; format: ADME, organism-based, Canis lupus familiaris; conditions: in vivo
[21] = Clearance in dog at 0.5 mg/kg, iv; format: ADME, organism-based, Canis lupus familiaris; conditions: in vivo
[22] = Bioavailability in dog at 0.5 mg/kg, iv; format: ADME, organism-based, Canis lupus familiaris; conditions: in vivo
[23] = Half life in monkey at 0.5 mg/kg, iv; format: ADME, organism-based, Macaca mulatta; conditions: rhesus monkey, in vivo
[24] = Half life in monkey at 10 mg/kg, po; format: ADME, organism-based, Macaca mulatta; conditions: rhesus monkey, in vivo
[25] = Tmax in monkey at 10 mg/kg, po; format: ADME, organism-based, Macaca mulatta; conditions: rhesus monkey, in vivo
[26] = Cmax in monkey at 10 mg/kg, po; format: ADME, organism-based, Macaca mulatta; conditions: rhesus monkey, in vivo
[27] = AUClast in monkey at 0.5 mg/kg, iv; format: ADME, organism-based, Macaca mulatta; conditions: rhesus monkey, in vivo
[28] = AUClast in monkey at 10 mg/kg, po; format: ADME, organism-based, Macaca mulatta; conditions: rhesus monkey, in vivo
[29] = AUC (0 to infinity) in monkey at 10 mg/kg, po; format: ADME, organism-based, Macaca mulatta; conditions: rhesus monkey, in vivo
[30] = Bioavailability in monkey at 0.5 mg/kg, iv; format: ADME, organism-based, Macaca mulatta; conditions: rhesus monkey, in vivo
Rattus norvegicus [31] = assay: Antiarthritic activity against adjuvant-induced arthritis Lewis rat model at 50 mg/kg, po measured after 8 days; format: functional, organism-based; conditions: time 8.0 day
Rattus norvegicus [32] = assay: Antiarthritic activity against adjuvant-induced arthritis Lewis rat model assessed as improvement in arthritis symptoms at 50 mg/kg, po measured after 8 days; format: functional; conditions: time 8 day
Rattus norvegicus [33] = assay: Antiarthritic activity against adjuvant-induced arthritis Lewis rat model assessed as improvement in arthritis symptoms at 50 mg/kg, po measured after 8 days in presence of methotrexate; format: functional; conditions: time 8 day
Mus musculus [34] = assay: Antiarthritic activity against collagen-induced arthritis DBA1J mouse model assessed as improvement in arthritis symptoms at 15 mg/kg, sc measured after 21 days; format: functional; conditions: time 21 day
Mus musculus [35] = assay: Antiarthritic activity against collagen-induced arthritis DBA1J mouse model assessed as improvement in arthritis symptoms at 30 mg/kg, sc measured after 21 days; format: functional; conditions: time 21 day
Histone deacetylase 4 = Histone deacetylase 4 (Homo sapiens, UniProt P56524); assay: Inhibition of human recombinant HDAC4 using Boc-Lys(tri-fluoroacetyl)-AMC as substrate by fluorescence based analysis
[36] = molecular target: T2, Protein deacetylase HDAC6 (Homo sapiens, UniProt Q9UBN7); assay: Inhibition of human recombinant HDAC6 using fluorescent peptide p53 (379 to 382 residues) RHKK(Ac) as substrate by fluorescence based analysis
T2 sequence (Q9UBN7 whole entry): T1 sequence (whole entry)

Histone deacetylase 9 = Histone deacetylase 9 (Homo sapiens, UniProt Q9UKV0); assay: Inhibition of human recombinant HDAC9 using Boc-Lys(tri-fluoroacetyl)-AMC as substrate by fluorescence based analysis
Sequence of Histone deacetylase 9 (Q9UKV0 whole entry): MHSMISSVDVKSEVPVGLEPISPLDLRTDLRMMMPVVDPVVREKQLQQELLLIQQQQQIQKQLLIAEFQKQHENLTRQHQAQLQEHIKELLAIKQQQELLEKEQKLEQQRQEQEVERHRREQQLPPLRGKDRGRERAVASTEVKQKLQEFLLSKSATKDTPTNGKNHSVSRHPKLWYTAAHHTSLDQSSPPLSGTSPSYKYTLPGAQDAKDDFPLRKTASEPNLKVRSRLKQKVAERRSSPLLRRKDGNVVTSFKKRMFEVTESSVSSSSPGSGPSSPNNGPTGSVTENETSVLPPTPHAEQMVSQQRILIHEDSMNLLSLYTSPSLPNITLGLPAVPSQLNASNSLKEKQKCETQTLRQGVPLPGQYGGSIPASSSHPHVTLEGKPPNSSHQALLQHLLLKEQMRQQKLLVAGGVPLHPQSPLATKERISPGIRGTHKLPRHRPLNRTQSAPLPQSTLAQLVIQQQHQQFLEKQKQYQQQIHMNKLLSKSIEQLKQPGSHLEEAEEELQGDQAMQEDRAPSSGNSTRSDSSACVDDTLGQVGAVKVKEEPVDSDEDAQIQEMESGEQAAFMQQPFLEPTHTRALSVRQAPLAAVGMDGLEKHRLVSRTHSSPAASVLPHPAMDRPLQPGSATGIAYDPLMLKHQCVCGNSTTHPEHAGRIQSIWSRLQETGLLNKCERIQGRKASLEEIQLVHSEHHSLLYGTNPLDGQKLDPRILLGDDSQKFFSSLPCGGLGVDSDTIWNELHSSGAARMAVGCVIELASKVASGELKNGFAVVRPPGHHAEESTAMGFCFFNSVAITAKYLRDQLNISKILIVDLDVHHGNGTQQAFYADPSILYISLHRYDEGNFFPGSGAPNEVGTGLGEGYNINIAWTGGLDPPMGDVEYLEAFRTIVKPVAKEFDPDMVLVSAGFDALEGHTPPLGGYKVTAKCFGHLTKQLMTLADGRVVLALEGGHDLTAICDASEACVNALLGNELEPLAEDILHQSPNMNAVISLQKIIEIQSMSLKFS

Sequence of Histone deacetylase 4 (P56524 whole entry, the tested form may be a part): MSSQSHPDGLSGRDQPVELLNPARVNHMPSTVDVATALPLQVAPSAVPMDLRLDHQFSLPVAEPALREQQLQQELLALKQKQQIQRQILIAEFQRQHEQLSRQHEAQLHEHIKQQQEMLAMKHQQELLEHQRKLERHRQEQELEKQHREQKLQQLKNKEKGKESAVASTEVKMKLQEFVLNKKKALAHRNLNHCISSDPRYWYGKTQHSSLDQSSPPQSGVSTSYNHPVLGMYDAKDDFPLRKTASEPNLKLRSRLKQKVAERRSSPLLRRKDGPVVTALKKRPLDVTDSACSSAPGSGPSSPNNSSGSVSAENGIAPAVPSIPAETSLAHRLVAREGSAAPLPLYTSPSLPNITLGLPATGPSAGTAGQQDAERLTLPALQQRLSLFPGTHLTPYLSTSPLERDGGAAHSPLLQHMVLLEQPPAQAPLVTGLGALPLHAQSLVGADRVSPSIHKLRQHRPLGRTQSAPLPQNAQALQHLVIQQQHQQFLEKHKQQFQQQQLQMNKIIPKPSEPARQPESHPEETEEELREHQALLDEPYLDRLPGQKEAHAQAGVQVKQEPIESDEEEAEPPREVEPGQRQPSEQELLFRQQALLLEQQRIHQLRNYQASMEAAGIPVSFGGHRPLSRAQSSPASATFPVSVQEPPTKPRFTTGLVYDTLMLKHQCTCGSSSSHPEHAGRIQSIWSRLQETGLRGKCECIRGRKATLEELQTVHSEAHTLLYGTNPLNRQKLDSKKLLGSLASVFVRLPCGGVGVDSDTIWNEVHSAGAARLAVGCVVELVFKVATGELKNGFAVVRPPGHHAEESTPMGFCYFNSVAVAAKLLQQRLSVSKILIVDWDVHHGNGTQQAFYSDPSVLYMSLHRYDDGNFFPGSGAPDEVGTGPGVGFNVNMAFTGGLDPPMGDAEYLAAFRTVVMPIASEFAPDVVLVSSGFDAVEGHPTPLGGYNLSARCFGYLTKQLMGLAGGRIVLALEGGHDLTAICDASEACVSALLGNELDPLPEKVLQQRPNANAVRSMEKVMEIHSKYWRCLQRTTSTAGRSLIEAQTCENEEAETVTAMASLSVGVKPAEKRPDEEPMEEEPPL

CC1(C)CC(=O)c2c(C(F)(F)F)nn(Cc3ccc(C(=O)NO)cc3)c2C1
inhibition [1]: Active | inhibition [2]: inactive | inhibition [3]: inactive | half-life [4]: 17.4 min | half-life [5]: 83.4 min | C0 [6]: 4290 ng/mL | Cmax [7]: 2080 ng/mL | AUC(0-t) [8]: 1200 ng·h/mL | AUC(0-t) [9]: 1140 ng·h/mL | AUC(0-inf) [10]: 1210 ng·h/mL | bioavailability [11]: 19% | half-life [12]: 36 min | half-life [13]: 84 min | Tmax [14]: 24 min | C0 [15]: 2080 ng/mL | Cmax [16]: 1030 ng/mL | AUC(0-t) [17]: 446 ng·h/mL | AUC(0-t) [18]: 1090 ng·h/mL | AUC(0-inf) [19]: 458 ng·h/mL | AUC(0-inf) [20]: 1150 ng·h/mL | clearance [21]: 18.8 mL/min/kg | bioavailability [22]: 25.1% | half-life [23]: 18.6 min | half-life [24]: 57 min | Tmax [25]: 120 min | Cmax [26]: 137 ng/mL | AUC(0-t) [27]: 299 ng·h/mL | AUC(0-t) [28]: 332 ng·h/mL | AUC(0-inf) [29]: 339 ng·h/mL | bioavailability [30]: 11.2% | Activity (Rattus norvegicus [31]): Active | Activity (Rattus norvegicus [32]): 59.6% | Activity (Rattus norvegicus [33]): 97.9% | Activity (Mus musculus [34]): 53% | Activity (Mus musculus [35]): 65%

O=C(NO)c1ccc(Cn2c3c(c4ccccc42)C(=O)CCC3)cc1
pIC50 (Histone deacetylase 4): < 4.70 | pIC50 [36]: 7.46 | pIC50 (Histone deacetylase 9): < 4.70
